The test system of this experiment is primary rat mixed cortical cells. Nature of the experiment: In vitro myelination assay (MBP positive myelin strands, fold myelin pixels above background). Type of experiment: cell-based. The following applies: Rattus norvegicus; for fold induction at 1 µM: 1.0 μM compound; for fold induction at 10 µM: 10.0 μM compound. An excerpt:
In Vitro Myelination Assay
Compounds were screened for their ability to induce myelination using a primary rat mixed cortical cell culture assay, which contains neurons, oligodendrocyte precursor cells, oligodendrocytes, astrocytes and microglia. The assay quantifies myelination by measuring myelin basic protein (MBP) immunofluorescent positive myelin strands from images taken using a Cellomics Array Scan (model Arrayscan VTI HCS Reader) or a Molecular Devices Image Xpress (model IXM XL) high content imager. The myelin strands were quantitated using a custom created myelin detection software program. Test compounds were dissolved in DMSO to make a 10 mM initial stock solution. Dilutions were made in myelination medium to obtain the final solutions for the assay and were tested in primary rat mixed cortical cells at selected doses.
Primary rat mixed cortical cells were prepared from harvested cerebral cortices from postnatal day 1 (P1) rats (P1 Rat CD® IGS pups) were purchased from Charles River) in Complete Dissociation Medium, wherein the meninges were removed and the cortical tissue chopped with a razor blade into ˜1 mm^3 pieces. Tissue from 1-3 pups was collected and placed into 15 ml conical tubes in a total volume of 5 ml of Complete Dissociation Medium. Activated papain (3 ml) was added to each 15 ml conical tube and tissue was incubated at 37° C. for 30 minutes. After the 30 minute incubation, DNase (Sigma D4527; 75 μl of a 1 mg/ml stock) was added to each tube, followed by mechanical trituration using a 2 ml serological pipette and autopipettor to gently dissociate the tissue. Following trituration, larger tissue pieces were allowed to settle by gravity, and the supernatant containing dissociated cells was transferred to a 50 ml conical tube with 4 ml of trypsin inhibitor. Cells were pelleted by centrifugation, resuspended in myelination medium and filtered through a 40 μm filter. Cells were then seeded in 96-well plates (BD Biosciences, Black, PDL-coated, Cat. No. 356640) at 87,500-95,000 cells/well in a final volume of 200 μl of Myelination Medium in the presence or absence of compound and cultured for 14 days in a humidified 37° C. incubator with 5% CO2. Half the medium was removed and replaced with fresh medium containing 1× compound on days 6 and 10. Using a Biotek automatic plate washer (model Biomek® FXP Laboratory Automation Workstation), cells were fixed with 4% paraformaldehyde on day 14, washed with PBS and blocked in 5% normal goat serum (Vector Laboratories, S-1000) in 0.1% PBS-TritonX-100 (PBST) for 1 hour. Cells were stained with 1:500 anti-MBP (Covance, cat # SMI99) primary antibody in 1% normal goat serum in 0.1% PBST for 2 hours at room temperature followed by 2 washes with PBST. A final incubation in secondary antibody (1:1000, Invitrogen, Alexa-488 anti-mouse IgG2b) and 1:10,000 Hoechst dye in 1% normal goat serum in 0.1% PBST was performed for 2 hours at room temperature. Plates were washed with PBS and then scanned on a Cellomics Array Scan using a 10× objective (25 images per well) or the Image Xpress using a 10× objective (9 image per well). Images were analyzed using Vertex myelin detection software (described below) to quantify total MBP myelin pixels per well. Fold myelin pixels above background at two concentrations (1.0 μM and 10.0 μM) relative to baseline of no added compound are reported below in Table 4. Standard deviation for each compound concentration was calculated using all replicates and using a standard deviation formula commonly used in the art.
One of skill in the art would recognize that for this type of primary neuronal mixed cell assay variability between different assay runs is to be expected even though the protocol is the same for each assay run. For instance, variability may be due to small differences in cell viability, cell density, age of the animals, etc.
Vertex Myelin Detection Software: […]

Setting [1] is: relative to baseline of no added compound, read-out: Fold myelin pixels above background, 1.0 μM.
Where [2] appears, read: relative to baseline of no added compound, read-out: Fold myelin pixels above background, 10.0 μM.
Where [3] appears, read: relative to baseline of no added compound, read-out: Fold myelin pixels above background.
Where [4] appears, read: read-out: Fold myelin pixels above background relative to baseline of no added compound.

Where two headings read alike, the source gives them in different places.

Regarding `Cc1cc(Nc2ncn(-c3cc(F)cc(F)c3)n2)cc([C@H]2CCN(C3COC3)C[C@@H]2O)c1` (racemic) [Compound 282, (3R,4R)-4-[3-[[1-(3,5-difluorophenyl)-1,2,4-triazol-3-yl]amino]-5-methyl-phenyl]-1-(oxetan-3-yl)piperidin-3-ol; (3S,4S)-4-[3-[[1-(3,5-difluorophenyl)-1,2,4-triazol-3-yl]amino]-5-methyl-phenyl]-1-(oxetan-3-yl)piperidin-3-ol], under setting [1], the fold induction at 1 µM was in the range of 10 to 100. The fold induction at 10 µM under setting [2] fell in the range of 10 to 100.

For `Cc1cc(Nc2ncn(-c3cc(F)cc(F)c3)n2)cc([C@@H]2CCN(C3COC3)C2)c1` (single isomer, unassigned) [Compound 92], under setting [1], the fold induction at 1 µM fell in the range of 1000 to 10000. In addition, the fold induction at 10 µM under setting [2] lay in the range of 100 to 1000.

Consider `Cc1cc(Nc2ncn(-c3cc(F)cc(F)c3)n2)cc([C@@]2(O)CCN(C3COC3)C2)c1` (single isomer, unassigned) [Compound 101], for which the fold induction at 1 µM under setting [1] lay in the range of 1000 to 10000. Further, the fold induction at 10 µM under setting [2] lay within 1 to 10.

As to `Cc1cc(Nc2ncn(-c3cc(F)cc(F)c3)n2)cc([C@H]2CCN(C3COC3)C2)c1` (single isomer, unassigned) [Compound 473], under setting [3], the fold induction at 1 µM is 100 to 1000 and the fold induction at 10 µM was in the range of 1 to 10.

Consider `Cc1cc(Nc2ncn(-c3cnccn3)n2)cc([C@@]2(C)CNC(=O)O2)c1` (single isomer, unassigned) [Compound 603], for which, under setting [3], the fold induction at 1 µM lay within 10 to 100 and the fold induction at 10 µM is 10 to 100.

Regarding `Cc1cc(Nc2ncn(-c3cc(F)cc(F)c3)n2)cc([C@@]2(C)CN(C)C(=O)O2)c1` (single isomer, unassigned) [Compound 611], under setting [3], the fold induction at 1 µM was in the range of 10 to 100 and the fold induction at 10 µM lay within 1 to 10.

`Cc1cc(Nc2ncn(-c3cc(F)cc(F)c3)n2)cc([C@H]2CN(C3COC3)CCO2)c1` (single isomer, unassigned) [Compound 623]: under setting [3], the fold induction at 1 µM is 10 to 100 and the fold induction at 10 µM is 1 to 10.

Turning to `Cc1cc(Nc2ncn(-c3ccc(F)c(F)c3)n2)cc(O[C@H]2CCCN(C3COC3)C2)c1` (single isomer, unassigned) [Compound 632], under setting [3], the fold induction at 1 µM lay within 10 to 100 and the fold induction at 10 µM was at most 1.

As to `Cc1cc(Nc2ncn(-c3cc(F)cc(F)c3)n2)cc(N[C@H]2C[C@H](N3CCOCC3)C2)c1` (single isomer, unassigned) [Compound 649, N1-[1-(3,5-difluorophenyl)-1,2,4-triazol-3-yl]-5-methyl-N3-(3-morpholinocyclobutyl)benzene-1,3-diamine], under setting [3], the fold induction at 1 µM is 10 to 100 and the fold induction at 10 µM is at most 1.

Turning to `Cc1cc(Nc2ncn(-c3cc(F)cc(F)c3)n2)cc([C@]2(C)CNC(=O)O2)c1` (single isomer, unassigned) [Compound 655], under setting [3], the fold induction at 1 µM lay in the range of 10 to 100 and the fold induction at 10 µM is at most 1.

As for `Cc1cc(Nc2ncn(-c3ccc(F)c(F)c3)n2)cc(O[C@@H]2CCCN(C3COC3)C2)c1` (single isomer, unassigned) [Compound 665], under setting [3], the fold induction at 1 µM is 10 to 100 and the fold induction at 10 µM lay in the range of 1 to 10.

On to `Cc1cc(Nc2ncn(-c3cc(F)cc(F)c3)n2)cc([C@@]2(C)CN(C3COC3)CCO2)c1` (single isomer, unassigned) [Compound 667], for which, under setting [3], the fold induction at 1 µM was in the range of 10 to 100 and the fold induction at 10 µM lay in the range of 1 to 10.

On to `Fc1cc(F)cc(-n2cnc(Nc3cc(C(F)(F)F)cc(N4CCN([C@@H]5CCOC5)CC4)n3)n2)c1` (single isomer, unassigned) [Compound 672], for which, under setting [3], the fold induction at 1 µM lay within 1 to 10 and the fold induction at 10 µM is 1 to 10.

`Cc1cc(Nc2ncn(-c3cc(F)cc(F)c3)n2)nc(N2CCN([C@H]3CCOC3)CC2)c1` (single isomer, unassigned) [Compound 673]: under setting [3], the fold induction at 1 µM is 10 to 100 and the fold induction at 10 µM was 100 to 1000.

In the case of `Cc1cc(Nc2ncn(-c3cc(F)cc(F)c3)n2)cc([C@@]2(C)CNC(=O)O2)c1` (single isomer, unassigned) [Compound 679], under setting [3], the fold induction at 1 µM lay within 10 to 100 and the fold induction at 10 µM was in the range of 1 to 10.

Take `Cc1cc(Nc2ncn(-c3cnccn3)n2)cc([C@]2(C)CNC(=O)O2)c1` (single isomer, unassigned) [Compound 682]: under setting [3], the fold induction at 1 µM lay within 10 to 100 and the fold induction at 10 µM was 10 to 100.

Consider `Cc1cc(Nc2ncn(-c3cc(F)cc(F)c3)n2)cc(N2CC(N3CCO[C@H](C)C3)C2)c1` (single isomer, unassigned) [Compound 696], for which, under setting [3], the fold induction at 1 µM lay within 10 to 100 and the fold induction at 10 µM was 1 to 10.

For the molecule `Cc1cc(Nc2ncn(-c3cc(F)cc(F)c3)n2)cc(O[C@H]2CCCN(C3COC3)C2)c1` (single isomer, unassigned) [Compound 700], under setting [3], the fold induction at 1 µM lay in the range of 10 to 100 and the fold induction at 10 µM was at most 1.

As to `Cc1cc(Nc2ncn(-c3cc(F)cc(F)c3)n2)nc(N2CCN([C@H]3CCOC3)CC2)c1` (single isomer, unassigned) [Compound 740], under setting [3], the fold induction at 1 µM is 10 to 100 and the fold induction at 10 µM was 10 to 100.

As to `Cc1cc(Nc2ncn(-c3cc(F)cc(F)c3)n2)cc(O[C@@H]2CCCN(C3COC3)C2)c1` (single isomer, unassigned) [Compound 748], under setting [3], the fold induction at 1 µM was 10 to 100 and the fold induction at 10 µM was at most 1.

As for `Cc1cc(Nc2ncn(-c3cc(F)cc(F)c3)n2)cc([C@]2(C)CN(C3COC3)CCO2)c1` (single isomer, unassigned) [Compound 750], under setting [3], the fold induction at 1 µM fell in the range of 1 to 10 and the fold induction at 10 µM is 10 to 100.

On to `Cc1cc(Nc2ncn(-c3cc(F)cc(F)c3)n2)cc([C@@H]2CN(C3COC3)CCO2)c1` (single isomer, unassigned) [Compound 751], for which, under setting [3], the fold induction at 1 µM is 10 to 100 and the fold induction at 10 µM was at most 1.

Regarding `Fc1cc(F)cc(-n2cnc(Nc3cc(C(F)(F)F)cc(N4CCN([C@H]5CCOC5)CC4)n3)n2)c1` (single isomer, unassigned) [Compound 787], under setting [4], the fold induction at 1 µM lay within 1 to 10 and the fold induction at 10 µM fell in the range of 10 to 100.

Take `Cc1cc(Nc2ncn(-c3ccc(F)c(F)c3)n2)cc(N[C@H]2C[C@H](N3CCOCC3)C2)c1` (single isomer, unassigned) [Compound 792, N1-[1-(3,4-difluorophenyl)-1,2,4-triazol-3-yl]-5-methyl-N3-(3-morpholinocyclobutyl)benzene-1,3-diamine]: under setting [4], the fold induction at 1 µM lay in the range of 10 to 100 and the fold induction at 10 µM is at most 1.

In the case of `Cc1cc(Nc2ncn(-c3cc(F)cc(F)c3)n2)cc([C@]2(C)CN(C)C(=O)O2)c1` (single isomer, unassigned) [Compound 796], under setting [4], the fold induction at 1 µM fell in the range of 10 to 100 and the fold induction at 10 µM is at most 1.

Turning to `Cc1cc(Nc2ncn(-c3cc(F)cc(F)c3)n2)cc(N2CC(N3CCOC[C@@H]3C)C2)c1` (single isomer, unassigned) [Compound 800], under setting [4], the fold induction at 1 µM lay in the range of 10 to 100 and the fold induction at 10 µM was 10 to 100.

The record behind these values is patent publication US10766869B2, “Triazoles for the treatment of demyelinating dieases” (Vertex Pharmaceuticals Incorporated, priority 2015, dated 2020).
